Test: gradient 5% acetonitrile 3 min, to 50% in 2 min, to 85% in 15 min, held 3 min, 100 µL/min
Conditions: column: Zorbax Extend-C18 2.1 x 50 mm; eluents: water / acetonitrile, 0.1% formic acid
Outline: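 Retention times come from adduct peaks that were picked computationally and then checked by hand. The standards, pure and pooled in mixtures of ~100 molecules, were run on a Zorbax Extend-C18 column (2.1 × 50 mm, 1.8 μm) at 100 μL/min with water and acetonitrile, each with 0.1% formic acid. Detection was by quadrupole time-of-flight mass spectrometry in positive and negative ionization mode, with a dead volume of 40 μL and a dwell volume of 900 μL.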

| Structure (SMILES) | RP-LC retention time [s] |
| --- | --- |
| O=C(CN1C(=O)C(C(=O)N2CCCC2)Sc2ccccc21)NCc1ccc(Cl)cc1 (stereo not given) | 948 |
| NS(=O)(=O)c1ccc(CCNS(=O)(=O)c2ccc(-c3cc(C(F)(F)F)on3)o2)cc1 | 874 |
| O=C1NCCCCCN(Cc2ccc(F)cc2F)[C@H]2CCC[C@@H]12 | 623 |
| COCc1cc(=O)n(CC(=O)NCc2ccccc2Cl)c(N)n1 | 619 |
| O=C1NCCCn2cc(S(=O)(=O)NCc3ccccc3Cl)cc21 | 686 |
| CCOC(=O)C1CCCN(C(=O)C2CCc3nc(N(CC)CC)ncc3C2)C1 (stereo not given) | 620 |
| CC1CCC(N2CC(=O)N(CCN3CCOCC3)C(c3cccnc3)C2=O)CC1 (stereo not given) | 548 |
| COCc1cnc2c(c1SCc1ccc(C)cc1)c(=O)n(C)c(=O)n2C | 1060 |
| O=C(NCc1cccs1)C1CN(S(=O)(=O)c2cccnc2)CC12CCCCC2 (stereo not given) | 856 |
| O=C(Cc1cc(-c2cc3ccccc3o2)on1)NCCC1=CCCCC1 | 1060 |
| CN(C)c1ccc(CNC(=O)c2nnc(-c3ccc(S(=O)(=O)N4CCCC4)cc3)o2)cc1 | 688 |
| COc1cccc(CC(=O)N2CCC3(CC2)NCc2ccccc2-n2ccnc23)c1 | 572 |
| COc1ccc(N2CCN(C(=O)C3CCCN(C(=O)c4cc5sccc5n4C)C3)CC2)cc1 (stereo not given) | 821 |
| Cc1ccc(NC(=O)Nc2ccc3nnc(C4CCC4)n3c2)cc1Cl | 870 |
| O=C(NCc1ccccc1Cl)C1CCCN(C(=O)NC2CC2)C1 (stereo not given) | 652 |
| O=C(CN1C(=O)CCC1=O)Nc1cccc(NC(=O)CN2C(=O)CCC2=O)c1 | 692 |
| CCOc1cc(C)c(C)cc1S(=O)(=O)n1cc(C)nc1CC | 712 |
| CN(C)C(=O)C1CN(C(=O)c2cccc(Br)c2)CC12CCOCC2 (stereo not given) | 619 |
| CCc1nccn1Cc1nc(-c2ccc(F)c(Cl)c2)no1 | 669 |
| COc1cc(-c2noc(Cn3cnc4c(oc5ccccc54)c3=O)n2)cc(OC)c1OC | 857 |

| Structure (SMILES) | RP-LC retention time [s] |
| --- | --- |
| COCc1cc(=O)n(CC(=O)Nc2cc(C)ccc2C)c(N2CCOCC2)n1 | 844 |
| Cc1ccc(C2=NC3(CCN(C(=O)Cc4cccs4)CC3)ON2)cc1 | 829 |
| CC(=O)NCc1nc(-c2ccccc2Cl)no1 | 673 |
| CCN1CCN(c2ccc(-c3ccc(C)c(S(=O)(=O)N4CCOCC4)c3)nn2)CC1 | 612 |
| COc1cc(NC(=O)N2CCC(N3CCN(Cc4ccccc4)C3=O)CC2)cc(OC)c1 | 804 |
| Cn1cc(CCN2CCN(S(=O)(=O)c3cccs3)CC2)c2cccnc21 | 604 |
| COc1ccc(Cl)cc1NC(=O)C1CCCN1S(=O)(=O)c1cc2c(cc1C)NC(=O)C(C)O2 (stereo not given) | 909 |
| O=C(CCC(=O)OCC(=O)c1ccccc1)Nc1ccc2ccccc2c1 | 891 |
| CC(=O)Nc1cc(C(=O)NCC(C)C)c2ccc(C)nc2c1 | 574 |
| CCOc1ccc(CNC(=O)c2ccc3c(c2)nc2n3CCN(C3CCCCC3)C2=O)cc1 | 830 |
| Cc1sc(-c2cc(C(F)(F)F)on2)cc1S(=O)(=O)Nc1ccccc1F | 1110 |
| COC(=O)CNC(=O)C1COc2ccc(NC(=O)c3ccc(Br)cc3)cc2C1 (stereo not given) | 794 |
| COc1cc2c(cc1OC)C(C(=O)NC1CCCCC1)C(c1cccnc1)N(C)C2=O (stereo not given) | 994 |
| COc1ccc(Cc2nc(-c3ccc4oc(C)nc4c3)no2)cc1OC | 892 |
| O=C1COc2ccc(-c3csc(NC(=O)c4ccco4)n3)cc2N1 | 741 |
| CCOC(=O)c1cc(C2CC2)nc2c1c(=O)n(Cc1ccccc1F)c(=O)n2C | 1140 |
| O=C(O)CCC1CCCN(S(=O)(=O)c2ccccc2)C1 (stereo not given) | 770 |
| CCOC(=O)CNC(=O)Nc1cc(F)c2nc(N3CCCCC3)ccc2c1 | 596 |
| CCn1cnc2ccc(C(=O)NC3CC3)cc2c1=O | 714 |
| CCc1ccc(S(=O)(=O)c2cnc(N3CCN(c4ccccc4Cl)CC3)nc2N)cc1 | 1290 |

| Structure (SMILES) | RP-LC retention time [s] |
| --- | --- |
| CCCC(=O)Nc1ccc2c(c1)CN(C(=O)c1ccc(Cl)cc1)C(C(=O)N(C)C)C2 (stereo not given) | 748 |
| COc1ccc2cccc(NC(=O)c3csc(C)n3)c2n1 | 1120 |
| O=C(CC1CCCCC1)N1CCC(c2ccncc2)CC1 | 622 |
| CCN(CC)CCN(CC(=O)N1CCNCC1)S(=O)(=O)c1ccc(C)c(C)c1 | 576 |
| CCc1ccc(NC(=O)Cn2c(N)nc(CC)c(C)c2=O)cc1 | 639 |
| Cc1cc(C)cc(-c2nnc(Cc3nc(-c4cccc(Br)c4)no3)o2)c1 | 1240 |
| COc1ccc(-c2noc(Cc3nnc(-c4ccc(Cl)cc4)o3)n2)cc1F | 1060 |
| Cc1ccc(CN2C[C@@H](CO)[C@H](c3ccccn3)C2)nc1 | 559 |
| Cc1ccc2nc(-c3ccc(Cl)cc3)c(Nc3ccccc3C)n2c1 | 890 |
| COCCC1CCN(C(=O)CCc2c(C)nn(C)c2C)CC1 | 616 |
| CCn1nccc1C(=O)N1CCC(Nc2ncnc3c2CCC3)CC1 | 557 |
| COC(=O)c1[nH]c(C)c(C(=O)C(C)N(CC2CCCCC2)C(=O)c2ccccc2)c1C (stereo not given) | 1050 |
| O=c1ccc(S(=O)(=O)N2CCOCC2)cn1Cc1ccc(Cl)cc1 | 814 |
| O=C(NCC1CCN(Cc2ccco2)CC1)C(=O)Nc1ccc(F)c(Cl)c1 | 584 |
| CCOC(=O)c1c(C)[nH]c(C(=O)N2CCC(CC(=O)NCc3ccccc3)CC2)c1C | 762 |
| CCc1nc2c(c(=O)n1CC(=O)Nc1ccc(C(C)C)cc1)CN(Cc1ccccc1)CC2 | 753 |
| CCCC(=O)Nc1ccc(CCc2nc3ccc(C(=O)NCC(C)C)cc3[nH]2)cc1 | 646 |
| Cc1cc(-n2nnc(C(=O)N3CCC4(CC3)OCCO4)c2-c2ccncc2)ccc1F | 715 |

Next, values leading:

| RP-LC retention time [s] | Structure (SMILES) |
| --- | --- |
| 883 | O=C(NCCc1csc(-c2ccccc2)n1)c1ccccc1C(F)(F)F |
| 563 | O=C(Cn1ncc2c(N3CCN(c4ccccn4)CC3)ncnc21)Nc1cccc(F)c1 |
| 1100 | O=C(Nc1cnc(-c2cccc(Cl)c2)nc1)C1CCCC1 |
| 967 | COc1ccc(-c2nccc(C3CCCN(C(=O)c4ccccc4)C3)n2)cc1 (stereo not given) |
| 749 | O=C(NC1CCCCC1)N1CCC(c2noc(-c3cccnc3)n2)C1 (stereo not given) |
| 661 | CC(C)N1CCN(Cc2nc(-c3ccc(N(C)Cc4ccccc4)nc3)no2)CC1 |
| 685 | Cc1ccc(Nc2nc(C(=O)NC3CCS(=O)(=O)C3)nc3ccccc23)cc1 (stereo not given) |
| 737 | Cc1c(S(=O)(=O)CCNC(=O)NCc2ccc(F)cc2)c2ccccc2n1C |
| 920 | CC(=O)Nc1cccc2c(C(=O)N3CCN(c4cccc(Cl)c4)CC3)ccnc12 |
| 1320 | CC(C)(C)c1ccccc1OCC(=O)Nc1nc(-c2ccccc2)cs1 |
| 628 | CC(C)c1nnc2n1CCN(C(=O)c1cc(-c3cccs3)[nH]n1)C2 |
| 939 | Cc1cc(-c2nnc(-c3ccc(F)cc3)o2)c(C)n1CC(=O)NCc1ccc(F)cc1F |
| 702 | COc1ccc(Nc2c(-c3ccc(SC)cc3)nc3ncccn23)cc1OC |
| 891 | Cc1c(Cl)cccc1NC(=O)N1CCc2c(c(COc3ccccc3)nn2C)C1 |
| 1060 | Cc1c(-c2noc(-c3ccc(F)cc3)n2)nnn1Cc1ccc(F)cc1 |
| 912 | CN(C)C(=O)C1CCN(c2nc3ccc(-c4ccc(F)cc4)nc3s2)CC1 |

| RP-LC retention time [s] | Structure (SMILES) |
| --- | --- |
| 1090 | CSc1cccc(NC(=O)Nc2nc(-c3ccccc3)cs2)c1 |
| 1170 | O=S(=O)(c1cc(F)cc(F)c1)N1CCC(c2noc(-c3ccc(F)cc3)n2)CC1 |
| 840 | O=C(CSc1ccc(NC(=O)c2cccs2)nn1)Nc1nc2ccccc2s1 |
| 645 | Cc1cccc(C(=O)NC2CCN(c3nnc4ccccn34)CC2)c1 |
| 614 | O=C(O)c1nnn(-c2cccc(F)c2)c1-c1cccnc1 |
| 687 | COc1cccc(NC(=O)N2CCN(c3cc(C)nc(Nc4ccc(C)cc4)n3)CC2)c1 |
| 864 | Cn1nnc2cc(-c3noc(C4CC(=O)N(c5cccc(Cl)c5)C4)n3)ccc21 (stereo not given) |
| 907 | CCOC(=O)c1ccc(N2C=C(C#N)S(=O)(=O)c3cc(F)ccc32)cc1 |
| 630 | CC(=O)Nc1ccc(NC(=O)CCNc2c(-c3ccc(F)cc3)nc3cnccn23)cc1 |
| 822 | O=C(c1ccccc1F)N1CCC(C(=O)N2CCc3ccccc32)CC1 |
| 786 | CNS(=O)(=O)c1cc(-c2nnc(-c3ccccc3)o2)ccc1OC |
| 755 | O=C(Nc1cccc(F)c1)N1CCC(N2CCN(Cc3cccc(F)c3)C(=O)C2=O)CC1 |
| 611 | CCNC(=O)Nc1ccc2c(c1)CN(Cc1ccc(F)cc1F)CCO2 |
| 996 | Cc1ccccc1N1CCN(C(=O)c2ccnc(N3CCCC3)n2)CC1 |
| 714 | CC(Cc1ccco1)NC(=O)C1CC(=O)N(c2ccc(F)cc2)C1 (stereo not given) |
| 902 | Cc1cc(C)n2c(Nc3c(C)cccc3C)c(-c3cccc(Cl)c3)nc2n1 |

From the METLIN SMRT retention time set (Domingo-Almenara et al. 2019)
